# Data published in article PMC7192969 (Journal of Pharmaceutical Analysis, 2019).
# How the values were obtained:
# SD rats = assay: Freund's adjuvant induced hind paw edema, anti-inflammatory effect; assay type: in vivo, rat
# [1] = Pharmacokinetics of aconitine in plasma after oral administration; assay type: in vivo; settings: male, Sprague-Dawley, rat, 1 mg/kg; for half-life: t1/2z
# [2] = Group A: aconitine at 1 mg/kg oral, alone
# [3] = Group B: aconitine at 1 mg/kg + liquiritin at 10 mg/kg oral
# [4] = Group D: aconitine at 1 mg/kg + glycyrrhizic acid at 10 mg/kg oral
# [5] = Group E: aconitine at 1 mg/kg + glycyrrhetinic acid at 10 mg/kg oral
# [6] = 0 h, 10 mg/kg oral in combination with aconitine 1 mg/kg
# [7] = 1 h, 10 mg/kg oral in combination with aconitine 1 mg/kg
# [8] = 2 h, 10 mg/kg oral in combination with aconitine 1 mg/kg
# [9] = 4 h, 10 mg/kg oral in combination with aconitine 1 mg/kg
# [10] = 6 h, 10 mg/kg oral in combination with aconitine 1 mg/kg
structure (smiles),measurement,setting,value
"CCN1C[C@]2(COC)[C@H](O)C[C@H](OC)[C@@]34[C@@H]5C[C@@]6(O)[C@H](OC(=O)c7ccccc7)[C@@H]5[C@@](OC(C)=O)([C@@H]([C@H](OC)[C@H]23)[C@@H]14)[C@@H](O)[C@@H]6OC [Aconitine, aconitine]",hind paw volume,"SD rats; 0 h, 1 mg/kg oral, alone",1.70 ± 0.06 mL
same,hind paw volume,"SD rats; 1 h, 1 mg/kg oral, alone",1.87 ± 0.10∗ mL
same,hind paw volume,"SD rats; 2 h, 1 mg/kg oral, alone",1.99 ± 0.15 mL
same,hind paw volume,"SD rats; 4 h, 1 mg/kg oral, alone",2.02 ± 0.12∗ mL
same,hind paw volume,"SD rats; 6 h, 1 mg/kg oral, alone",2.19 ± 0.05∗ mL
same,AUC(0-t),[1],33.7 ± 7.47 ng·h/mL
same,AUC(0-t),[1]; [2],25.8 ± 4.36 ng·h/mL
same,AUC(0-t),[1]; [3],30 ± 6.63 ng·h/mL
same,AUC(0-t),[1]; [4],29.1 ± 4.44 ng·h/mL
same,AUC(0-t),[1]; [5],19.9 ± 3.61 ng·h/mL
same,AUC(0-inf),[1],34.5 ± 7.07 ng·h/mL
same,AUC(0-inf),[1]; [2],29.1 ± 6.15 ng·h/mL
same,AUC(0-inf),[1]; [3],31.9 ± 5.6 ng·h/mL
same,AUC(0-inf),[1]; [4],33.6 ± 6.93 ng·h/mL
same,AUC(0-inf),[1]; [5],20.7 ± 3.55 ng·h/mL
same,Cmax,[1],9.19 ± 1.38 ng/mL
same,Cmax,[1]; [2],4.8 ± 0.966 ng/mL
same,Cmax,[1]; [3],5.77 ± 0.831 ng/mL
same,Cmax,[1]; [4],5.73 ± 0.7 ng/mL
same,Cmax,[1]; [5],5.88 ± 0.73 ng/mL
same,Tmax,[1],0.667 ± 0.258 h
same,Tmax,[1]; [2],1.08 ± 0.376 h
same,Tmax,[1]; [3],1.67 ± 0.408 h
same,Tmax,[1]; [4],1.42 ± 0.585 h
same,Tmax,[1]; [5],0.833 ± 0.258 h
same,half-life,[1],2.19 ± 0.249 h
same,half-life,[1]; [2],3.87 ± 1.02 h
same,half-life,[1]; [3],3.26 ± 1.48 h
same,half-life,[1]; [4],3.48 ± 1.06 h
same,half-life,[1]; [5],1.9 ± 0.423 h
"O=C1C[C@@H](c2ccc(O[C@@H]3O[C@H](CO)[C@@H](O)[C@H](O)[C@H]3O)cc2)Oc2cc(O)ccc21 [Liquiritin, liquiritin]",hind paw volume,SD rats; [6],1.70 ± 0.05 mL
same,hind paw volume,SD rats; [7],1.78 ± 0.12∗ mL
same,hind paw volume,SD rats; [8],1.81 ± 0.10∗# mL
same,hind paw volume,SD rats; [9],1.83 ± 0.09∗# mL
same,hind paw volume,SD rats; [10],1.96 ± 0.14∗# mL
"CC1(C)[C@@H](O)CC[C@]2(C)[C@H]3C(=O)C=C4[C@@H]5C[C@@](C)(C(=O)O)CC[C@]5(C)CC[C@@]4(C)[C@]3(C)CC[C@@H]12 [Glycyrrhetinic acid, glycyrrhetinic acid]",hind paw volume,SD rats; [6],1.71 ± 0.05 mL
same,hind paw volume,SD rats; [7],1.80 ± 0.02∗# mL
same,hind paw volume,SD rats; [8],1.79 ± 0.03∗# mL
same,hind paw volume,SD rats; [9],1.91 ± 0.09∗ mL
same,hind paw volume,SD rats; [10],2.10 ± 0.06∗# mL
"CC1(C)[C@@H](O[C@H]2O[C@H](C(=O)O)[C@@H](O)[C@H](O)[C@H]2O[C@@H]2O[C@H](C(=O)O)[C@@H](O)[C@H](O)[C@H]2O)CC[C@]2(C)[C@H]3C(=O)C=C4[C@@H]5C[C@@](C)(C(=O)O)CC[C@]5(C)CC[C@@]4(C)[C@]3(C)CC[C@@H]12 [Glycyrrhizic acid, glycyrrhizic acid]",hind paw volume,SD rats; [6],1.72 ± 0.03 mL
same,hind paw volume,SD rats; [7],1.92 ± 0.05∗ mL
same,hind paw volume,SD rats; [8],1.96 ± 0.09∗ mL
same,hind paw volume,SD rats; [9],1.99 ± 0.11∗ mL
same,hind paw volume,SD rats; [10],2.14 ± 0.08∗ mL
"COc1ccc2c(c1)c(CC(=O)O)c(C)n2C(=O)c1ccc(Cl)cc1 [Indomethacin, reference compound]",hind paw volume,"SD rats; 0 h, 1 mg/kg oral, alone",1.67 ± 0.09 mL
same,hind paw volume,"SD rats; 1 h, 1 mg/kg oral, alone",2.00 ± 0.11 mL
same,hind paw volume,"SD rats; 2 h, 1 mg/kg oral, alone",2.04 ± 0.15 mL
same,hind paw volume,"SD rats; 4 h, 1 mg/kg oral, alone",2.15 ± 0.10∗ mL
same,hind paw volume,"SD rats; 6 h, 1 mg/kg oral, alone",2.19 ± 0.18∗ mL
